Experimental data reported in US7160508B2, “Personal care products having elastomeric portions” (The Gillette Company, priority 2001, dated 2007).
Converted amounts (≈) assume the structure as drawn.

Assay: Minimum inhibitory concentration (agar plate dilution, molds)
Type: cell-based
Conditions: 168 h; lowest concentration in sterile water and agar with no growth visible to the naked eye after 7 days at 27±2° C.
From the text: Preferred antimicrobial agents will inhibit mold growth at relatively low concentrations of antimicrobial agent, i.e., preferred antimicrobial agents will have a low “minimum inhibitory concentration” (MIC), measured as parts per million (ppm) concentration in sterile water and agar using the test procedure discussed below. If the MIC is high, a high concentration of antimicrobial agent will generally be necessary in order to obtain sufficient antifungal activity, resulting in increased cost and a potential adverse affect on the properties of the elastomeric material. For example, high concentrations of antifungal agent may tend to increase the hardness of the thermoplastic elastomer. Preferred antimicrobial agents have an MIC of less than about 100 ppm.
Minimum inhibitory concentration is measured by diluting the antimicrobial agent in sterile water to obtain a plurality of solutions having a range of concentrations. 1 ml of each of the solutions is added to 9 ml portions of molten agar to give a final volume of 10 ml, and immediately poured to form plates. […] The plates are incubated at 27±2° C. and analyzed for growth at 3, 5 and 7 days. […]

MIC: ~50 µg/mL (≈ 177 µM)
Compound: CCCCCCCCn1sc(Cl)c(Cl)c1=O [4,5-dichloro-2-n-octyl-4-isothiazolin-3-one]
